Article PMC10536132, “Arginine Gemini-Based Surfactants for Antimicrobial and Antibiofilm Applications: Molecular Interactions, Skin-Related Anti-Enzymatic Activity and Cytotoxicity” (Molecules, 2023)
Marks after values point to notes of the source that are not given here.

Assays:
[1] = test system: Pseudomonas aeruginosa PAO1 biofilm; experiment: Biofilm inhibition, crystal violet; assay type: cell-based; conditions: P. aeruginosa PAO1, 24 h contact, 2–128 μg/mL tested
Method: (§1) The ability of MRSA and P. aeruginosa to form biofilms on propylene surfaces in the presence of bis-Args was determined. The two bacterial cells were kept in contact with the gemini surfactants at different concentrations from 2 to 128 μg/mL for 24 h. Then, the percentage of biofilm inhibition was determined.
(§2) Antibiofilm activity was assessed against biofilm-producing strains of methicillin-resistant Staphylococcus aureus (MRSA) ATCC 43300 and Pseudomonas aeruginosa PAO1. Biofilm inhibition and eradication capacities of the gemini surfactants were evaluated against adherent bacterial biofilms grown in 96-well microtiter plates. Bacteria were grown overnight in tryptic soy agar at 37 °C for 24 h. The bacteria were suspended in lysogeny broth with glucose (1%) at 1.5 × 10^8 CFU/mL.
(§3) Biofilm inhibition procedure: 100 μL of the gemini surfactant at different concentration values was added to each well in a 96-well microplate, then, 100 μL of the diluted bacterial suspension was added to the wells. Two-fold serial dilutions of the gemini surfactants to be tested were used (2–128 μg/mL). Microtiter plates were incubated at 37 °C for 24 h. Spent growth media was then discarded and biofilm was fixed with 150 μL methanol for 10 min. After the plates were air dried, the biofilms were stained with 50 μL of 0.1 of % crystal violet for 25 min. The plates were rinsed with water and then 150 μL of 96% ethanol containing 10% acetic acid was added to all 96-well plates to dissolve the remaining crystal violet-stained biofilm. The absorbance value was recorded at 570 nm. Each assay was performed at least three times and the results were averaged.

[2] = test system: methicillin-resistant Staphylococcus aureus (MRSA) ATCC 43300 biofilm; experiment: Biofilm inhibition, crystal violet; assay type: cell-based; conditions: 24 h contact, 2–128 μg/mL tested
Method: as §1, §2, §3

[3] = test system: Pseudomonas aeruginosa PAO1 biofilm; experiment: Biofilm eradication, crystal violet; assay type: cell-based; conditions: P. aeruginosa PAO1, at 32 μg/mL
Method: (§4) The ability of these geminis to disperse and eradicate biofilms once formed on the propylene surfaces of the microtiter plates was evaluated using the same bacterial strains. […] The susceptibility of both biofilms against the tested surfactants was similar. At a low concentration of 32 μg/mL, C3(CA)2 and C3(LA)2 were able to eradicate around 60–70% of preformed biofilm; however, at this concentration, the […] hydrophobic compound, C3(OA)2, eradicated less than 30% of biofilm. At high concentrations, the eradication percentage is similar for all alkyl chains. […] In this case, at low concentrations, there is not a clear dependence between the antibiofilm properties and the spacer; however, at a high concentration, the best effectivity was obtained for the longer spacer chains.
as §2
(§5) Biofilm eradication procedure: For mature biofilm formation, 200 μL of the diluted bacterial suspension was added to each well in a 96-well microplate and incubated at 37 °C for 24 h. The wells were gently rinsed with phosphate-buffered saline (PBS) and 200 μL of the corresponding gemini surfactant solution was added to each well and incubated again at 37 °C for 24 h. Two-fold serial dilutions of the gemini surfactant were used (4–128 μg/mL). After the plates were air dried, the biofilms were stained with 50 μL of 0.1 of % crystal violet for 25 min. The plates were rinsed with water and then 150 μL of 96% ethanol containing 10% acetic acid was added to all 96-well plates to dissolve the remaining crystal violet-stained biofilm. The absorbance value was recorded at 570 nm. Each assay was conducted at least three times and the results were averaged.

[4] = test system: methicillin-resistant Staphylococcus aureus (MRSA) ATCC 43300 biofilm; experiment: Biofilm eradication, crystal violet; assay type: cell-based; conditions: at 32 μg/mL
Method: as §4, §2, §5

[5] = target: porcine pancreatic elastase (Sus scrofa, UniProt P00772); experiment: Elastase inhibitory assay; assay type: biochemical; conditions: 40 µL of 1000 µg/mL stock; EGCG 250 μM
porcine pancreatic elastase, sequence (P00772 27-266): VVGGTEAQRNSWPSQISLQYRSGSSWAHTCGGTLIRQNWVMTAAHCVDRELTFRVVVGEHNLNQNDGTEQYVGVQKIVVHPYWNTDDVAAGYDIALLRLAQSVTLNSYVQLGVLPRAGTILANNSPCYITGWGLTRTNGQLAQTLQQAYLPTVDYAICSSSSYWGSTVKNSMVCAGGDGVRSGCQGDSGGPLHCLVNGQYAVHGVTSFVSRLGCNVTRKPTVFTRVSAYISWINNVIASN
Method in brief: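 Porcine pancreatic elastase preincubated 15 min with diluted surfactant samples, then N-succinyl-(Ala)3-p-nitroanilide substrate added in Tris-HCl pH 8.0. Absorbance at 410 nm followed for 2 h; % inhibition from absorbance without versus with sample, in triplicate.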

bovine hyaluronidase = experiment: Hyaluronidase inhibitory activity; assay type: biochemical; conditions: negative inhibition values
Method in brief: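 Bovine hyaluronidase (7900 units/mL working solution, 0.1 M acetate pH 3.6) was mixed 1:1 with surfactant in 5% DMSO for 20 min at 37 °C, then with CaCl2 (12.5 mM) for 20 min, then sodium hyaluronate (1.2 mg/mL) for 40 min. The p-dimethylaminobenzaldehyde colour was read at 585 nm. % inhibition = (A1−A2)/A1×100.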

[6] = set-up: method as in doi:10.1021/la981295l; conditions: cited from earlier work
[7] = set-up: method as in doi:10.1021/la981295l; conditions: cited from earlier work; remark: listed apart in the source

CCCCCCCCCCCC(=O)NC(CCCNC(=N)N)C(=O)NCCCNC(=O)C(CCCNC(=N)N)NC(=O)CCCCCCCCCCC (stereo not drawn) [C3(LA)2, Bis (N^α-lauroyl arginine 1,3-propane) diamide]
concentration that inhibits biofilm formation [1]: 32 µg/mL
concentration that inhibits biofilm formation [2]: 32 µg/mL
preformed biofilm eradicated [3]: 60–70%
preformed biofilm eradicated [4]: 60–70%
anti-elastase activity (inhibition) [5]: 17%
increase of hyaluronidase enzymatic activity (bovine hyaluronidase): 48.3%
CMC (mM) Conductivity [6]: 0.5 * mM
CMC (mM) Fluorescence [7]: 0.4 * mM
